The text below walks through data of patent US10487068B2, “Pyridazine derivatives as RORc modulators” (Genentech, Inc., priority 2015, dated 2019).

The assay deals with T1, RORc ligand binding domain (Homo sapiens, UniProt P51449).
T1 sequence (P51449 269-508 limits assumed): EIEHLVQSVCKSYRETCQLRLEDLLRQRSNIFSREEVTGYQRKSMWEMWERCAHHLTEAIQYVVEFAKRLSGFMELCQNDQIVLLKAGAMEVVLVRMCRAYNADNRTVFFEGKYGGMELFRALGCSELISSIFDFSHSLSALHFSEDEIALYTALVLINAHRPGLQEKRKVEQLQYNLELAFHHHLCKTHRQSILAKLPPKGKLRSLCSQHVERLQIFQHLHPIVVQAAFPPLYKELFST
The assay is described as follows: In Vitro RORc Ligand Binding Assay. To be noted: RORc IC50, radioligand 25-[3H]hydroxycholesterol 6 nM; 0.6 ug/mL RORc receptor; 3 h at 25° C.

For orientation: IC50 means the concentration that gives 50% inhibition. Read a high IC50 as a need for much substance.

`CC1(C)[C@H]2CC[C@]1(c1ccnc(-c3ccnc(C(N)=O)c3)n1)c1nnc(-c3c(F)cccc3F)cc12` [Example 404] had an IC50 of 9.2 nM.
`CC1(C)[C@H]2CC[C@]1(c1cncc(-c3cnn(CC(N)=O)c3)n1)c1nnc(-c3c(F)cccc3F)cc12` [Example 405, 2-(4-(6-((5R,8S)-3-(2,6-difluorophenyl)-9,9-dimethyl-5,6,7,8-tetrahydro-5,8-methanocinnolin-8-yl)pyrazin-2-yl)-1H-pyrazol-1-yl)acetamide]: the IC50 is 7.7 nM.
The same measure for `CC(C)(O)Cn1cc(-c2cncc([C@@]34CC[C@@H](c5cc(-c6c(F)cccc6F)nnc53)C4(C)C)n2)cn1` [Example 406, 1-(4-(6-((5R,8S)-3-(2,6-difluorophenyl)-9,9-dimethyl-5,6,7,8-tetrahydro-5,8-methanocinnolin-8-yl)pyrazin-2-yl)-1H-pyrazol-1-yl)-2-methylpropan-2-ol]: 7.6 nM; for `CC(C)(O)Cn1ccc(-c2cncc([C@@]34CC[C@@H](c5cc(-c6c(F)cccc6F)nnc53)C4(C)C)n2)n1` [Example 407, 1-(3-(6-((5R,8S)-3-(2,6-difluorophenyl)-9,9-dimethyl-5,6,7,8-tetrahydro-5,8-methanocinnolin-8-yl)pyrazin-2-yl)-1H-pyrazol-1-yl)-2-methylpropan-2-ol]: 7.6 nM.
With `CC1(C)[C@H]2CC[C@]1(c1nccc(-n3ccnc3)n1)c1nnc(-c3c(F)cccc3F)cc12` [Example 408, (5R,8R)-8-(4-(1H-imidazol-1-yl)pyrimidin-2-yl)-3-(2,6-difluorophenyl)-9,9-dimethyl-5,6,7,8-tetrahydro-5,8-methanocinnoline], the concentration for half-maximal inhibition (IC50) is 11 nM.
For the molecule `CC1(C)[C@H]2CC[C@]1(c1ccnc(-c3cnc(=O)[nH]c3)n1)c1nnc(-c3c(F)cccc3F)cc12` [Example 409], the IC50 was 7.8 nM.
The molecule `CC1(C)[C@H]2CC[C@]1(c1cncc(-c3ccnc(OCC(N)=O)c3)n1)c1nnc(-c3c(F)cccc3F)cc12` [Example 410, 2-((4-(6-((5R,8S)-3-(2,6-difluorophenyl)-9,9-dimethyl-5,6,7,8-tetrahydro-5,8-methanocinnolin-8-yl)pyrazin-2-yl)pyridin-2-yl)oxy)acetamide] showed a 50% inhibitory concentration (IC50) of 6.3 nM.
The same measure for `CC1(C)[C@H]2CC[C@]1(c1cncc(-c3ccn(CC(N)=O)n3)n1)c1nnc(-c3c(F)cccc3F)cc12` [Example 411, 2-(3-(6-((5R,8S)-3-(2,6-difluorophenyl)-9,9-dimethyl-5,6,7,8-tetrahydro-5,8-methanocinnolin-8-yl)pyrazin-2-yl)-1H-pyrazol-1-yl)acetamide]: 8.8 nM.
The same measure for `CC1(C)[C@H]2CC[C@]1(c1ccnc(-c3ccnc(CO)c3)n1)c1nnc(-c3c(F)cccc3F)cc12` [Example 412]: 7.1 nM; for `CC1(C)[C@H]2CC[C@]1(c1cncc(-c3ccc(CS(C)(=O)=O)nc3)n1)c1nnc(-c3c(F)cccc3F)cc12` [Example 413]: 5 nM; for `CC1(C)[C@H]2CC[C@]1(c1ccnc(-c3ccc(NS(C)(=O)=O)nc3)n1)c1nnc(-c3c(F)cccc3F)cc12` [Example 414, N-(5-(4-((5R,8S)-3-(2,6-difluorophenyl)-9,9-dimthyl-5,6,7,8-tetrahydro-5,8-methanocinnolin-8-yl)pyrimidin-2-yl)pyridin-2-yl)methanesulfonamide]: 9.8 nM.
Molecule `CC(C)(O)c1cnc(-c2nccc([C@@]34CC[C@@H](c5cc(-c6c(F)cccc6F)nnc53)C4(C)C)n2)cn1` [Example 415] had a half-maximal inhibitory concentration (IC50) of 22 nM.
Take `C[C@H](O)Cn1ccc(-c2cncc([C@@]34CC[C@@H](c5cc(-c6c(F)cccc6F)nnc53)C4(C)C)n2)n1` [Example 417, (S)-1-(3-(6-((5R,8S)-3-(2,6-difluorophenyl)-9,9-dimethyl-5,6,7,8-tetrahydro-5,8-methanocinnolin-8-yl)pyrazin-2-yl)-1H-pyrazol-1-yl)propan-2-ol]: the IC50 came to 5.6 nM.
The same measure for `C[C@@H](O)C(=O)Nc1ccc(-c2nccc([C@@]34CC[C@@H](c5cc(-c6c(F)cccc6F)nnc53)C4(C)C)n2)cn1` [Example 418]: 10.5 nM; for `CC1(C)[C@H]2CC[C@]1(c1cncc(-c3ccc(N)nc3)n1)c1nnc(-c3c(F)cccc3F)cc12` [Example 419, 5-(6-((5R,8S)-3-(2,6-difluorophenyl)-9,9-dimethyl-5,6,7,8-tetrahydro-5,8-methanocinnolin-8-yl)pyrazin-2-yl)pyridin-2-amine]: 10.1 nM.
Consider `CC1(C)[C@H]2CC[C@]1(c1cncc(-c3ccc(OCCO)nc3)n1)c1nnc(-c3c(F)cccc3F)cc12` [Example 420, 2-((5-(6-((5R,8S)-3-(2,6-difluorophenyl)-9,9-dimethyl-5,6,7,8-tetrahydro-5,8-methanocinnolin-8-yl)pyrazin-2-yl)pyridin-2-yl)oxy)ethanol], for which the half-inhibitory concentration (IC50) was 9.2 nM.
The same measure for `CC1(C)[C@H]2CC[C@]1(c1cncc(-n3ccncc3=O)n1)c1nnc(-c3c(F)cccc3F)cc12` [Example 421, 6′-((5R,8S)-3-(2,6-difluorophenyl)-9,9-dimethyl-5,6,7,8-tetrahydro-5,8-methanocinnolin-8-yl)-2H-[1,2′-bipyrazin]-2-one]: 39.5 nM; for `CC1(C)[C@H]2CC[C@]1(c1cncc(Oc3cnccn3)n1)c1nnc(-c3c(F)cccc3F)cc12` [Example 422]: 16 nM.
The molecule `C[C@H](O)Cn1ccc(-c2cncc([C@@]34CC[C@@H](c5cc(-c6c(F)cccc6F)nnc53)C4(C)C)n2)n1` [Example 423, (S)-1-(3-(6-((5R,8S)-3-(2,6-difluorophenyl)-9,9-dimethyl-5,6,7,8-tetrahydro-5,8-methanocinnolin-8-yl)pyrazin-2-yl)-1H-pyrazol-1-yl)propan-2-ol] gave a concentration for half-maximal inhibition (IC50) of 9.6 nM.
In turn, `CC1(C)[C@H]2CC[C@]1(c1cncc(-c3ccn(CCC#N)n3)n1)c1nnc(-c3c(F)cccc3F)cc12` [Example 424, 3-(3-(6-((5R,8S)-3-(2,6-difluorophenyl)-9,9-dimethyl-5,6,7,8-tetrahydro-5,8-methanocinnolin-8-yl)pyrazin-2-yl)-1H-pyrazol-1-yl)propanenitrile] showed an IC50 of 10.9 nM.
Molecule `CNS(=O)(=O)c1cncc([C@@]23CC[C@@H](c4cc(-c5c(F)cccc5F)nnc42)C3(C)C)n1` [Example 425, 6-((5R,8S)-3-(2,6-difluorophenyl)-9,9-dimethyl-5,6,7,8-tetrahydro-5,8-methanocinnolin-8-yl)-N-methylpyrazine-2-sulfonamide] showed a half-maximal inhibitory concentration (IC50) of 11.4 nM.
`CC(C)(O)c1nc(-c2cncc([C@@]34CC[C@@H](c5cc(-c6c(F)cccc6F)nnc53)C4(C)C)n2)oc1Br` [Example 426, 2-(5-bromo-2-(6-((5R,8S)-3-(2,6-difluorophenyl)-9,9-dimethyl-5,6,7,8-tetrahydro-5,8-methanocinnolin-8-yl)pyrazin-2-yl)oxazol-4-yl)propan-2-ol] displayed an IC50 of 12.1 nM.
For `CC1(C)[C@H]2CC[C@]1(c1cncc(-c3nc([C@@](C)(O)C(F)(F)F)co3)n1)c1nnc(-c3c(F)cccc3F)cc12` [Example 427, (R)-2-(2-(6-((5R,8S)-3-(2,6-difluorophenyl)-9,9-dimethyl-5,6,7,8-tetrahydro-5,8-methanocinnolin-8-yl)pyrazin-2-yl)oxazol-4-yl)-1,1,1-trifluoropropan-2-ol], the IC50 was 15.9 nM.
In the case of `CC1(C)[C@H]2CC[C@]1(c1cncc(-c3nc([C@](C)(O)C(F)(F)F)co3)n1)c1nnc(-c3c(F)cccc3F)cc12` [Example 428, (S)-2-(2-(6-((5R,8S)-3-(2,6-difluorophenyl)-9,9-dimethyl-5,6,7,8-tetrahydro-5,8-methanocinnolin-8-yl)pyrazin-2-yl)oxazol-4-yl)-1,1,1-trifluoropropan-2-ol], the 50% inhibitory concentration (IC50) worked out at 15.7 nM.
The molecule `CC[C@](C)(O)c1coc(-c2cncc([C@@]34CC[C@@H](c5cc(-c6c(F)cccc6F)nnc53)C4(C)C)n2)n1` [Example 429, (S)-2-(2-(6-((5R,8S)-3-(2,6-difluorophenyl)-9,9-dimethyl-5,6,7,8-tetrahydro-5,8-methanocinnolin-8-yl)pyrazin-2-yl)oxazol-4-yl)butan-2-ol] had an IC50 of 13.8 nM.
Turning to `CC[C@@](C)(O)c1coc(-c2cncc([C@@]34CC[C@@H](c5cc(-c6c(F)cccc6F)nnc53)C4(C)C)n2)n1` [Example 430, (R)-2-(2-(6-((5R,8S)-3-(2,6-difluorophenyl)-9,9-dimethyl-5,6,7,8-tetrahydro-5,8-methanocinnolin-8-yl)pyrazin-2-yl)oxazol-4-yl)butan-2-ol], the half-inhibitory concentration (IC50) is 15 nM.
With `CC1(C)[C@H]2CC[C@]1(c1cncc(-c3nc(C(O)(O)C(F)(F)F)co3)n1)c1nnc(-c3c(F)cccc3F)cc12` [Example 431, 1-(2-(6-((5R,8S)-3-(2,6-difluorophenyl)-9,9-dimethyl-5,6,7,8-tetrahydro-5,8-methanocinnolin-8-yl)pyrazin-2-yl)oxazol-4-yl)-2,2,2-trifluoroethane-1,1-diol], the 50% inhibitory concentration (IC50) amounted to 21.3 nM.
In the case of `CC(C)(O)c1nc(-c2cncc([C@@]34CC[C@@H](c5cc(-c6c(F)cccc6F)nnc53)C4(C)C)n2)oc1Cl` [Example 432, 2-(5-chloro-2-(6-((5R,8S)-3-(2,6-difluorophenyl)-9,9-dimethyl-5,6,7,8-tetrahydro-5,8-methanocinnolin-8-yl)pyrazin-2-yl)oxazol-4-yl)propan-2-ol], the IC50 was found to be 18 nM.
Next, `CC(C)(O)c1nc(-c2cncc([C@@]34CC[C@@H](c5cc(-c6c(F)cccc6F)nnc53)C4(C)C)n2)oc1CO` [Example 433, 2-(2-(6-((5R,8S)-3-(2,6-difluorophenyl)-9,9-dimethyl-5,6,7,8-tetrahydro-5,8-methanocinnolin-8-yl)pyrazin-2-yl)-5-(hydroxymethyl)oxazol-4-yl)propan-2-ol]: 38.5 nM.
